The species named for test [1] is Oryctolagus cuniculus. Briefly: Antagonist activity against L-type calcium channel in New Zealand white rabbit basilar artery assessed as vasodilation by measuring effect on 50 mM K+-stimulated depolarization-induced constriction at 10 uM. The class given is tissue-based. On the set-up: scale not given: the % may be the effect or the level left.
The species entered for test [2] is Oryctolagus cuniculus. The test is described as follows: Antagonist activity against endothelin A/B2 receptor in New Zealand white rabbit basilar artery assessed as vasodilation by measuring effect on endothelin-1-induced constriction at 10 uM. In kind it is tissue-based. More on the design: scale not given: the % may be the effect or the level left.
Test [3] in a line: Antagonist activity against L-type calcium channel in New Zealand white rabbit basilar artery assessed as vasodilation by measuring effect on 50 mM K+-stimulated depolarization-induced constriction. In kind it is tissue-based, Oryctolagus cuniculus.
Test [4] in a line: Antagonist activity against endothelin A/B2 receptor in New Zealand white rabbit basilar artery assessed as vasodilation by measuring effect on endothelin-1-induced constriction. The class given is tissue-based, Oryctolagus cuniculus.

As for `COc1cc(/C=C/C(=O)c2cccc(NS(=O)(=O)c3ccc(C(F)(F)F)cc3)c2)ccc1O`, the Activity came out at 65.8% in test [1] and 46.1% in test [2].
The matching figures for `COc1cc(/C=C/C(=O)c2cccc(NS(=O)(=O)c3cccs3)c2)ccc1O`: 32.4% and 39.1%.
As for `COc1cc(/C=C/C(=O)c2cccc(NS(=O)(=O)c3ccc(C)cc3)c2)ccc1O`, the Activity in test [1] was 98.7%; in test [2], 99.6%. Moreover, the half-maximal effective concentration (EC50) in test [3] was determined as 3.67 µM; in test [4], 2.7 µM.
As for `COc1cc(/C=C/C(=O)c2cccc(NS(=O)(=O)c3ccc(Cl)cc3)c2)ccc1O`, the figures for the Activity in test [1] and in test [2] were 93.4% and 78.3%, respectively. Moreover, the EC50 is 5.58 µM in test [3] and 5.9 µM in test [4].
As for `COc1cc(/C=C/C(=O)c2cccc(NS(=O)(=O)c3cc(Cl)ccc3Cl)c2)ccc1O`, the Activity in test [1] came to 53.4%; in test [2] it was 30.4%.
For `COc1cc(/C=C/C(=O)c2cccc(NS(=O)(=O)c3ccc([N+](=O)[O-])cc3)c2)ccc1O`, the Activity in test [1] came to 70.7%; in test [2], 98.9%. For the same compound, the EC50 in test [4] came to 3.9 µM.
Regarding `CCS(=O)(=O)Nc1cccc(C(=O)/C=C/c2ccc(O)c(OC)c2)c1`, the Activity in test [1] was 55.3%; in test [2], 19.7%.
Consider `COc1cc(/C=C/C(=O)CC(=O)/C=C/c2ccc(O)c(OC)c2)ccc1O` [CURCUMIN], for which the figures for the Activity in test [1] and in test [2] were 58.4% and 8.5%, respectively. Further, the values for the concentration for a half-maximal effect (EC50) in test [3] and in test [4] were 7.48 µM and 48.5 µM, respectively.
On the same counts, the results for `COc1cc(/C=C/C(=O)c2cccc(NS(=O)(=O)c3c(Cl)cccc3Cl)c2)ccc1O` are 99.4%, 99.8%, 2.78 µM and 1.8 µM.
Turning to `COc1cc(/C=C/C(=O)c2cccc(NS(=O)(=O)c3cccc(C(F)(F)F)c3)c2)ccc1O`, the Activity in test [1] came to 52.3%; in test [2] it was 36.5%.
`COc1cc(/C=C/C(=O)c2cccc(NS(=O)(=O)c3ccccc3)c2)ccc1O`: the Activity in test [1] stood at 50.4%; in test [2], 40.2%.
`COc1cc(/C=C/C(=O)c2cccc(NS(=O)(=O)c3ccc(Cl)cc3Cl)c2)ccc1O`: the Activity amounted to 4.2% in test [1] and 83.4% in test [2]. Also, the half-maximal effective concentration (EC50) in test [4] came out at 8.8 µM.
Regarding `COc1cc(/C=C/C(=O)c2cccc(NS(=O)(=O)C(C)C)c2)ccc1O`, the Activity was 20.5% in test [1] and 31.2% in test [2].
In the case of `COc1cc(/C=C/C(=O)c2cccc(NS(=O)(=O)c3cc(Cl)cc(Cl)c3)c2)ccc1O`, the Activity in test [1] was determined as 37.3%; in test [2], 55.9%.
On the same counts, the results for `CCCS(=O)(=O)Nc1cccc(C(=O)/C=C/c2ccc(O)c(OC)c2)c1` are 42.3% and 30.8%.
On the same counts, the results for `COc1cc(/C=C/C(=O)c2cccc(NS(=O)(=O)C(F)(F)F)c2)ccc1O` are 10.7% and 34.6%.
The matching figures for `COc1cc(/C=C/C(=O)c2cccc(NS(=O)(=O)c3ccc(Cl)c(Cl)c3)c2)ccc1O`: 30.2% and 41.8%.
In the case of `COc1cc(/C=C/C(=O)c2cccc(NS(C)(=O)=O)c2)ccc1O`, the Activity in test [1] came out at 4.2%; in test [2], 22.3%.
For `COc1cc(/C=C/C(=O)c2cccc(NS(=O)(=O)c3ccc(F)cc3)c2)ccc1O`, the Activity came out at 71.8% in test [1] and 75.1% in test [2]. Further, the EC50 in test [4] stood at 6.4 µM.
For the compound `COc1cc(/C=C/C(=O)c2cccc(NS(=O)(=O)c3ccc(OC(F)(F)F)cc3)c2)ccc1O`, the Activity was determined as 76.7% in test [1] and 81.4% in test [2]. In addition, in test [4], the EC50 was determined as 6.1 µM.
`COc1ccc(S(=O)(=O)Nc2cccc(C(=O)/C=C/c3ccc(O)c(OC)c3)c2)cc1`: the Activity in test [1] was 26.4%; in test [2] it was 56.8%.
For `COc1cc(/C=C/C(=O)c2cccc(NS(=O)(=O)c3ccc(C(C)=O)cc3)c2)ccc1O`, the values for the Activity in test [1] and in test [2] were 67.9% and 68.7%, respectively.

The record behind these values is ChEMBL document CHEMBL3621039, “Synthesis of alkylsulfonyl and substituted benzenesulfonyl curcumin mimics as dual antagonist of L-type Ca(2+) channel and endothelin A/B2 receptor” (Bioorg Med Chem, 2015).
